ChEMBL document CHEMBL1201862, “PubChem BioAssay data set” (2004)
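96-well plates; 48 h exposure; 5 concentrations. Endpoints by linear interpolation between flanking doses. Not reached: highest tested concentration assigned. Here, GI50 denotes the concentration required for 50% inhibition of growth.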 Active and inactive are the calls of the source. Rule as the data show it: active = GI50 up to about 1.1 µM and inactive = higher.

Columns and labels:
Test in all cases: NCI anticancer screen, dose series, 48 h
NCI-H522 = system: NCI-H522
ACHN = system: ACHN
XF498 = system: XF498
K562 = system: K562
MDA-N = system: MDA-N
SK-MEL-28 = system: SK-MEL-28
SW-620 = system: SW-620
Hs-578T = system: Hs-578T
SK-MEL-5 = system: SK-MEL-5
DMS-273 = system: DMS-273
EKVX = system: EKVX
RPMI-8226 = system: RPMI-8226
HOP-92 = system: HOP-92
HL-60 = system: HL-60
HOP-62 = system: HOP-62
UO-31 = system: UO-31
MOLT-4 = system: MOLT-4
MDA-MB-231 = system: MDA-MB-231
IGROV-1 = system: IGROV-1
SK-OV-3 = system: SK-OV-3
NCI-H460 = system: NCI-H460
BT-549 = system: BT-549
UACC-62 = system: UACC-62
CAKI-1 = system: CAKI-1
A498 = system: A498
DMS-114 = system: DMS-114
M19-MEL = system: M19-MEL
OVCAR-3 = system: OVCAR-3
LXFL 529 = system: LXFL 529
SNB-78 = system: SNB-78
T47D = system: T47D
786-0 = system: 786-0
Malme-3M = system: Malme-3M
OVCAR-8 = system: OVCAR-8
TK-10 = system: TK-10
SF-539 = system: SF-539
KM-20L2 = system: KM-20L2
OVCAR-4 = system: OVCAR-4
LOX IMVI = system: LOX IMVI
NCI/ADR-RES = system: NCI/ADR-RES
NCI-H226 = system: NCI-H226
A549 = system: A549
COLO 205 = system: COLO 205
KM12 = system: KM12
M14 = system: M14
HT-29 = system: HT-29
HCT-15 = system: HCT-15
MDA-MB-435 = system: MDA-MB-435
SF-295 = system: SF-295
SNB-75 = system: SNB-75
UACC-257 = system: UACC-257
DLD-1 = system: DLD-1
PC-3 = system: PC-3
MCF7 = system: MCF7
HCC 2998 = system: HCC 2998
SNB-19 = system: SNB-19
SN12C = system: SN12C
OVCAR-5 = system: OVCAR-5
NCI-H23 = system: NCI-H23
RXF 393 = system: RXF 393
SR = system: SR
CCRF-CEM = system: CCRF-CEM
HCT-116 = system: HCT-116
SK-MEL-2 = system: SK-MEL-2
DU-145 = system: DU-145
U-251 = system: U-251
SF-268 = system: SF-268

COC1=CC(=O)c2c(O)c3c(c(O)c2C1=O)C=C(C)OC3O (configuration not stated)
GI50 (NCI-H522): 1.45 µM (inactive)
GI50 (ACHN): 2.1 µM (inactive)
GI50 (XF498): 1.84 µM (inactive)
GI50 (K562): 1.44 µM (inactive)
GI50 (MDA-N): 1.66 µM (inactive)
GI50 (SK-MEL-28): 1.27 µM (inactive)
GI50 (SW-620): 0.828 µM (active)
GI50 (Hs-578T): 2.64 µM (inactive)
GI50 (SK-MEL-5): 0.269 µM (active)
GI50 (DMS-273): 1.01 µM (active)
GI50 (EKVX): 7.35 µM (inactive)
GI50 (RPMI-8226): 1.5 µM (inactive)
GI50 (HOP-92): 6.84 µM (inactive)
GI50 (HL-60): 0.731 µM (active)
GI50 (HOP-62): 2.88 µM (inactive)
GI50 (UO-31): 4.04 µM (inactive)
GI50 (MOLT-4): 1.58 µM (inactive)
GI50 (MDA-MB-231): 1.76 µM (inactive)
GI50 (IGROV-1): 1.98 µM (inactive)
GI50 (SK-OV-3): 8.45 µM (inactive)
GI50 (NCI-H460): 1.35 µM (inactive)
GI50 (BT-549): 2.07 µM (inactive)
GI50 (UACC-62): 0.859 µM (active)
GI50 (CAKI-1): 3.52 µM (inactive)
GI50 (A498): 2.12 µM (inactive)
GI50 (DMS-114): 1.23 µM (inactive)
GI50 (M19-MEL): 0.224 µM (active)
GI50 (OVCAR-3): 1.03 µM (active)
GI50 (LXFL 529): 1.36 µM (inactive)
GI50 (SNB-78): 1.73 µM (inactive)
GI50 (T47D): 2.13 µM (inactive)
GI50 (786-0): 3.24 µM (inactive)
GI50 (Malme-3M): 0.277 µM (active)
GI50 (OVCAR-8): 0.849 µM (active)
GI50 (TK-10): 2.89 µM (inactive)
GI50 (SF-539): 1.58 µM (inactive)
GI50 (KM-20L2): 0.365 µM (active)
GI50 (OVCAR-4): 1.92 µM (inactive)
GI50 (LOX IMVI): 0.597 µM (active)
GI50 (NCI/ADR-RES): 1.51 µM (inactive)
GI50 (NCI-H226): 2.9 µM (inactive)
GI50 (A549): 1.42 µM (inactive)
GI50 (COLO 205): 0.222 µM (active)
GI50 (KM12): 2.21 µM (inactive)
GI50 (M14): 0.281 µM (active)
GI50 (HT-29): 0.541 µM (active)
GI50 (HCT-15): 0.349 µM
GI50 (MDA-MB-435): 1.25 µM (inactive)
GI50 (SF-295): 2.09 µM (inactive)
GI50 (SNB-75): 1.57 µM (inactive)
GI50 (UACC-257): 0.24 µM (active)
GI50 (DLD-1): 0.665 µM (active)
GI50 (PC-3): 2.64 µM (inactive)
GI50 (MCF7): 0.39 µM (active)
GI50 (HCC 2998): 1.56 µM (inactive)
GI50 (SNB-19): 2.48 µM (inactive)
GI50 (SN12C): 0.877 µM (active)
GI50 (OVCAR-5): 2.43 µM (inactive)
GI50 (NCI-H23): 0.838 µM (active)
GI50 (RXF 393): 1.05 µM (active)
GI50 (SR): 1.84 µM (inactive)
GI50 (CCRF-CEM): 1.64 µM (inactive)
GI50 (HCT-116): 0.569 µM (active)
GI50 (SK-MEL-2): 1.96 µM (inactive)
GI50 (DU-145): 1.01 µM (active)
GI50 (U-251): 2.48 µM (inactive)
GI50 (SF-268): 2.18 µM (inactive)
